Values joined by “and” are separate entries in the source; they are usually repeats but may differ in a detail not shown here. Equal values may be shown once. Toxic doses and inconclusive results are not listed. No stated cut-off is given here; in the data, active means T/C of 150% or more; inactive means T/C below 125%.
System: L1210 leukemia ip in BDF1 mice, survival T/C
Experiment: NCI In Vivo Anticancer Drug Screen. Data for tumor model L1210 Leukemia (intraperitoneal) in B6D2F1 (BDF1) mice
Details: endpoint: mean survival time, higher = longer survival
Procedure, shortened: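 Mice bearing the transplanted tumor received compound or vehicle. Survival of the treated group was divided by that of the vehicle-treated control group to give the ratio.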

[1] = dose: 100.0 mg/kg/injection, schedule: Q04DX003 (ip), vehicle: Klucel (hydroxypropylcellulose) (HPC)
[2] = dose: 200.0 mg/kg/injection, schedule: Q04DX003 (ip), vehicle: Klucel (hydroxypropylcellulose) (HPC)
[3] = dose: 400.0 mg/kg/injection, schedule: Q04DX003 (ip), vehicle: Klucel (hydroxypropylcellulose) (HPC)
[4] = dose: 50.0 mg/kg/injection, schedule: Q01DX001 (ip), vehicle: saline
[5] = dose: 100.0 mg/kg/injection, schedule: Q01DX001 (ip), vehicle: saline
[6] = dose: 200.0 mg/kg/injection, schedule: Q01DX001 (ip), vehicle: saline
[7] = dose: 400.0 mg/kg/injection, schedule: Q01DX001 (ip), vehicle: saline
[8] = dose: 100.0 mg/kg/injection, schedule: Q04DX002 (ip), vehicle: Klucel (hydroxypropylcellulose) (HPC)
[9] = dose: 200.0 mg/kg/injection, schedule: Q04DX002 (ip), vehicle: Klucel (hydroxypropylcellulose) (HPC)
[10] = dose: 400.0 mg/kg/injection, schedule: Q04DX002 (ip), vehicle: Klucel (hydroxypropylcellulose) (HPC)
[11] = dose: 100.0 mg/kg/injection, schedule: Q01DX009 (ip), vehicle: saline with Tween-80
[12] = dose: 100.0 mg/kg/injection, schedule: Q01DX009 (ip), vehicle: Klucel (hydroxypropylcellulose) (HPC)
[13] = dose: 200.0 mg/kg/injection, schedule: Q01DX009 (ip), vehicle: Klucel (hydroxypropylcellulose) (HPC)
[14] = dose: 400.0 mg/kg/injection, schedule: Q01DX009 (ip), vehicle: Klucel (hydroxypropylcellulose) (HPC)

Measured: T/C

O=C1OC(c2ccccc2)(C2(c3ccccc3)C=C(c3ccccc3)C(=O)O2)C=C1c1ccccc1 (configuration not stated)
inactive: dose: 100.0 mg/kg/injection, schedule: Q01DX001 (ip), vehicle: Klucel (hydroxypropylcellulose) (HPC) 100 % of control | [1] 94 % of control | dose: 200.0 mg/kg/injection, schedule: Q01DX001 (ip), vehicle: Klucel (hydroxypropylcellulose) (HPC) 97 % of control | [2] 103 % of control | dose: 400.0 mg/kg/injection, schedule: Q01DX001 (ip), vehicle: Klucel (hydroxypropylcellulose) (HPC) 100 % of control | [3] 91 % of control

CC(SC(C)C(=O)NN)C(=O)NN (configuration not stated)
inactive: [4] 102 % of control | [5] 107 % of control | [6] 105 % of control | dose: 200.0 mg/kg/injection, schedule: Q01DX Z (ip), vehicle: carboxymethylcellulose (CMC) 94 % of control | dose: 296.0 mg/kg/injection, schedule: Q01DX Z (ip), vehicle: methylcellulose (MC) 98 % of control | dose: 370.0 mg/kg/injection, schedule: Q01DX Z (ip), vehicle: methylcellulose (MC) 104 % of control | [7] 100 % of control | dose: 400.0 mg/kg/injection, schedule: Q01DX Z (ip), vehicle: carboxymethylcellulose (CMC) 97 % of control | dose: 555.0 mg/kg/injection, schedule: Q01DX Z (ip), vehicle: methylcellulose (MC) 110 % of control | dose: 800.0 mg/kg/injection, schedule: Q01DX Z (ip), vehicle: carboxymethylcellulose (CMC) 111 % of control | dose: 833.0 mg/kg/injection, schedule: Q01DX Z (ip), vehicle: methylcellulose (MC) 119 % of control

O=C(O)c1ccc2c(c1)Sc1ccccc1N2
inactive: [1] 95 % of control | [2] 95 % of control

C[N+]1(C)N=C([O-])C=C1c1ccccc1
inactive: dose: 100.0 mg/kg/injection, schedule: Q04DX003 (ip), vehicle: saline 111 % of control | dose: 200.0 mg/kg/injection, schedule: Q04DX003 (ip), vehicle: saline 104 % of control | dose: 400.0 mg/kg/injection, schedule: Q04DX003 (ip), vehicle: saline 102 % of control

Cc1nnc(N)nc1C
inactive: [8] 95 % of control | [9] 103 % of control | [10] 95 % of control

O=[N+]([O-])c1ccccc1SSc1ccccc1[N+](=O)[O-]
inactive: dose: 50.0 mg/kg/injection, schedule: Q01DX001 (ip), vehicle: carboxymethylcellulose (CMC) 105 % of control | dose: 100.0 mg/kg/injection, schedule: Q01DX001 (ip), vehicle: carboxymethylcellulose (CMC) 94 % of control | [11] 95 % of control | dose: 200.0 mg/kg/injection, schedule: Q01DX001 (ip), vehicle: carboxymethylcellulose (CMC) 109 % of control | dose: 200.0 mg/kg/injection, schedule: Q01DX009 (ip), vehicle: saline with Tween-80 98 % of control | dose: 400.0 mg/kg/injection, schedule: Q01DX001 (ip), vehicle: carboxymethylcellulose (CMC) 100 % of control | dose: 400.0 mg/kg/injection, schedule: Q01DX009 (ip), vehicle: saline with Tween-80 98 % of control

Cc1ccc(C2(C)CC/C(=N/N=C3/CCC(C)(c4ccc(C)c(C)c4)c4cc(C)c(C)cc43)c3cc(C)c(C)cc32)cc1C (configuration not stated)
inactive: [5] 93 % of control | [6] 101 % of control | [7] 98 % of control

O=C(NC(=S)Nc1ccccc1C(F)(F)F)c1ccccc1F
inactive: [12] 98 % of control and 103 % of control | [8] 105 % of control and 110 % of control | [1] 93 % of control | [13] 98 % of control and 111 % of control | [9] 105 % of control and 90 % of control | [2] 90 % of control | [14] 94 % of control and 108 % of control | [10] 94 % of control and 113 % of control | [3] 91 % of control

Cc1nccc2c(C)c3c(cc12)c1ccccc1n3CCC1CO1 (configuration not stated)
inactive: dose: 37.5 mg/kg/injection, schedule: Q04DX003 (ip), vehicle: water 118 % of control | dose: 75.0 mg/kg/injection, schedule: Q04DX003 (ip), vehicle: water 122 % of control | dose: 150.0 mg/kg/injection, schedule: Q04DX003 (ip), vehicle: water 118 % of control

N#Cc1ccc(-n2cccc2)cc1
inactive: dose: 100.0 mg/kg/injection, schedule: Q01DX001 (ip), vehicle: steriod suspending solution 100 % of control | dose: 200.0 mg/kg/injection, schedule: Q01DX001 (ip), vehicle: steriod suspending solution 100 % of control | dose: 400.0 mg/kg/injection, schedule: Q01DX001 (ip), vehicle: steriod suspending solution 101 % of control

C/C(=N/OC(=O)N(C)C)c1ccc(Cl)c(Cl)c1
inactive: dose: 100.0 mg/kg/injection, schedule: Q01DX001 (ip), vehicle: other 96 % of control | dose: 200.0 mg/kg/injection, schedule: Q01DX001 (ip), vehicle: other 98 % of control

O=c1[nH]nc(-c2ccc(Cl)c(Cl)c2)s1
inactive: dose: 75.0 mg/kg/injection, schedule: Q01DX001 (ip), vehicle: saline 95 % of control | dose: 75.0 mg/kg/injection, schedule: Q04DX003 (ip), vehicle: saline 95 % of control | dose: 150.0 mg/kg/injection, schedule: Q01DX001 (ip), vehicle: saline 92 % of control | dose: 150.0 mg/kg/injection, schedule: Q04DX003 (ip), vehicle: saline 95 % of control | dose: 300.0 mg/kg/injection, schedule: Q01DX001 (ip), vehicle: saline 92 % of control | dose: 300.0 mg/kg/injection, schedule: Q04DX003 (ip), vehicle: saline 96 % of control

Cc1nc(Cl)c(C(N)=O)nc1C
inactive: dose: 25.0 mg/kg/injection, schedule: Q01DX009 (ip), vehicle: saline with Tween-80 91 % of control | dose: 50.0 mg/kg/injection, schedule: Q01DX009 (ip), vehicle: saline with Tween-80 96 % of control | [11] 96 % of control and 97 % of control

O=C(CCc1ccccc1)Nc1ccccc1
inactive: [4] 96 % of control | [5] 106 % of control | [1] 97 % of control | [6] 101 % of control | [2] 102 % of control | [7] 102 % of control | [3] 89 % of control

[CH3][Pb]([CH3])([CH3])[O]C(=O)C(F)(F)F
inactive: dose: 12.5 mg/kg/injection, schedule: Q04DX002 (ip), vehicle: saline 90 % of control

Cc1ccc(N=Nc2ccc(C)cc2NC(=O)C2CC2)cc1
inactive: [12] 97 % of control | [13] 97 % of control | [14] 97 % of control

Source: PubChem BioAssay AID248 (DTP/NCI, 2004)
